Measurements taken from patent publication US9365522B2, “Pyrazole amide derivative” (AMGEN INC., priority 2015, dated 2016).

Molecular target: T1, ligand binding domain of human ROR gamma (Homo sapiens, UniProt P51449)
T1 construct: NM_001001523; expressed in transfected cells; host or cells: HEK293T
T1 sequence (P51449 247-497 isoform P51449-2): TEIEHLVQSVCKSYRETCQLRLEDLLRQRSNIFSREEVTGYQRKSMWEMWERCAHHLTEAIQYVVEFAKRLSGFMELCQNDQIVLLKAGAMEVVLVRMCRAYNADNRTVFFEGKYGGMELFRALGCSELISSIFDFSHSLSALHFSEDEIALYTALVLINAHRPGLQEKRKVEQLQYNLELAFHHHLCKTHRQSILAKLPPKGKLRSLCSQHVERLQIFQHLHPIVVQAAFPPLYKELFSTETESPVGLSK
Experiment: ROR gamma reporter gene assay (GAL4-RORγ LBD luciferase, Dual-Glo)
Type: cell-based
Settings: HEK293T cells transfected with pM-ROR gamma, 8 concentrations 3.5 nM to 10.5 μM, 24 h incubation; read-out: result (pIC50, inhibition of RORγ transcriptional activity) (converted)
In short: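 Inhibition of RORγ-driven transcription was measured in HEK293T cells expressing a GAL4 fusion of the human RORγ LBD (aa 247-497), with renilla luciferase as internal control. Cells in 10% charcoal-stripped serum received compound (3.5 nM–10.5 μM) for 24 h.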

Row | Compound | IC50 [pM]
1 | CC1(C)C(CN(CC(=O)c2c(Cl)cncc2Cl)C(=O)c2cnn(C34CCC(C(=O)O)(CC3)CC4)c2C(F)(F)F)C1(C)C [Example 322, 4-(4-((2-(3,5-dichloropyridin-4-yl)-2-oxoethyl)-((2,2,3,3-tetramethylcyclopropyl)methyl)carbamoyl)-5-(trifluoromethyl)pyrazol-1-yl)bicyclo[2.2.2]octane-1-carboxylic acid] | 8130
2 | O=C(CN(Cc1cc(F)cc(F)c1)C(=O)c1cnn([C@H]2CC[C@H](C(=O)O)CC2)c1C(F)F)c1c(Cl)cncc1Cl [Example 20, trans-4-(4-((2-(3,5-Dichloropyridin-4-yl)-2-oxoethyl)(3,5-difluorobenzyl)carbamoyl)-5-(difluoromethyl)-1H-pyrazol-1-yl)cyclohexanecarboxylic acid] | 70800
3 | O=C(CN(Cc1ccc(F)cc1)C(=O)c1cnn([C@H]2CC[C@H](C(=O)NCCO)CC2)c1C(F)(F)F)c1c(Cl)cncc1Cl [Example 89, N-(2-(3,5-dichloropyridin-4-yl)-2-oxoethyl)-N-(4-fluorobenzyl)-1-(trans-4-((2-hydroxyethyl)carbamoyl)cyclohexyl)-5-(trifluoromethyl)-1H-pyrazole-4-carboxamide] | 1.38e+06
4 | CC1(C)CCC(N(CC(=O)c2c(Cl)cc(F)cc2Cl)C(=O)c2cnn(C34CCC(C(=O)O)(CC3)CC4)c2C(F)(F)F)CC1 [Example 230, 4-(4-((2-(2,6-dichloro-4-fluorophenyl)-2-oxoethyl)-(4,4-dimethylcyclohexyl)carbamoyl)-5-(trifluoromethyl)pyrazol-1-yl)bicyclo[2.2.2]octane-1-carboxylic acid] | 6610
5 | CC1(C)CCC(N(CC(=O)c2c(Cl)cncc2Cl)C(=O)c2cnn([C@H]3CC[C@](C)(C(=O)O)CC3)c2C(F)F)CC1 [Example 196, trans-4-(4-((2-(3,5-dichloropyridin-4-yl)-2-oxoethyl)-(4,4-dimethylcyclohexyl)carbamoyl)-5-(difluoromethyl)pyrazol-1-yl)-1-methylcyclohexane-1-carboxylic acid] | 3.47e+06
6 | CC1(C)[C@@H]2C[C@H](N(CC(=O)c3c(Cl)cccc3Cl)C(=O)c3cnn([C@H]4CC[C@](C)(C(=O)O)CC4)c3C(F)(F)F)C[C@@H]21 [Example 278, trans-4-(4-((2-(2,6-dichlorophenyl)-2-oxoethyl)((1R,3r,5S)-6,6-dimethylbicyclo[3.1.0]hexan-3-yl)carbamoyl)-5-(trifluoromethyl)-1H-pyrazol-1-yl)-1-methylcyclohexanecarboxylic acid] | 11700
7 | O=C(CN(C(=O)c1cnn([C@H]2CC[C@H](C(=O)O)CC2)c1C(F)(F)F)C1CCCCC1)c1c(Cl)cncc1Cl [Example 174, trans-4-(4-(cyclohexyl-(2-(3,5-dichloropyridin-4-yl)-2-oxoethyl)carbamoyl)-5-(trifluoromethyl)pyrazol-1-yl)cyclohexane-1-carboxylic acid] | 661000
8 | CC(C)(C)CN(CC(=O)c1c(Cl)cccc1C(F)(F)F)C(=O)c1cnn([C@H]2CC[C@](C)(C(=O)O)CC2)c1C(F)(F)F [Example 265] | 18200
9 | COCC(C)N(CC(=O)c1c(Cl)cncc1Cl)C(=O)c1cnn([C@H]2CC[C@](C)(C(=O)O)CC2)c1C(F)(F)F (stereo partly drawn) [Example 313, trans-4-(4-((2-(3,5-dichloropyridin-4-yl)-2-oxoethyl)-(1-methoxypropan-2-yl)carbamoyl)-5-(trifluoromethyl)pyrazol-1-yl)-1-methylcyclohexane-1-carboxylic acid] | 1.55e+06
10 | O=C(CN(Cc1cc(F)cc(F)c1)C(=O)c1cnn([C@H]2CC[C@H](C(=O)O)CC2)c1Cl)c1c(Cl)cncc1Cl [Example 135, trans-4-(5-chloro-4-((2-(3,5-dichloropyridin-4-yl)-2-oxoethyl)-((3,5-difluorophenyl)methyl)carbamoyl)pyrazol-1-yl)cyclohexane-1-carboxylic acid] | 3.09e+06
11 | Nc1nccc(Cl)c1C(=O)CN(Cc1cc(F)cc(F)c1)C(=O)c1cnn([C@H]2CC[C@H](C(=O)O)CC2)c1C(F)(F)F [Example 21, trans-4-(4-((2-(2-amino-4-chloropyridin-3-yl)-2-oxoethyl)(3,5-difluorobenzyl)carbamoyl)-5-(trifluoromethyl)-1H-pyrazol-1-yl)cyclohexanecarboxylic acid] | > 1e+07

Now from value to molecule:

Row | IC50 [pM] | Compound
12 | 191000 | CC1(C)[C@@H]2C[C@H](N(C[C@H](O)c3ccccc3Cl)C(=O)c3cnn([C@H]4CC[C@](C)(C(=O)O)CC4)c3C(F)(F)F)C[C@@H]21 [Example 368, trans-4-(4-((2-(2-chlorophenyl)-2-hydroxyethyl)((1R,3r,5S)-6,6-dimethylbicyclo[3.1.0]hexan-3-yl)carbamoyl)-5-(trifluoromethyl)-1H-pyrazol-1-yl)-1-methylcyclohexanecarboxylic acid]
13 | 2.95e+06 | CC(C)(C)CN(CCc1c[nH]c2ccccc12)C(=O)c1cnn([C@H]2CC[C@](C)(C(=O)O)CC2)c1C(F)(F)F [Example 328, trans-4-(4-(2,2-dimethylpropyl-(2-(1H-indol-3-yl)ethyl)carbamoyl)-5-(trifluoromethyl)pyrazol-1-yl)-1-methylcyclohexane-1-carboxylic acid]
14 | 20400 | CCC(F)(CC)CN(CC(=O)c1c(Cl)cncc1Cl)C(=O)c1cnn([C@H]2CC[C@](C)(C(=O)O)CC2)c1C(F)(F)F [Example 394, trans-4-(4-((2-(3,5-dichloropyridin-4-yl)-2-oxoethyl)-(2-ethyl-2-fluorobutyl)carbamoyl)-5-(trifluoromethyl)pyrazol-1-yl)-1-methylcyclohexane-1-carboxylic acid]
15 | 102000 | CC(C)(F)CN(CC(=O)c1c(Cl)cncc1Cl)C(=O)c1cnn([C@H]2CC[C@](C)(C(=O)O)CC2)c1C(F)(F)F [Example 326, trans-4-(4-((2-(3,5-dichloropyridin-4-yl)-2-oxoethyl)-(2-fluoro-2-methylpropyl)carbamoyl)-5-(trifluoromethyl)pyrazol-1-yl)-1-methylcyclohexane-1-carboxylic acid]
16 | 29500 | CC1(C)CCC(N(CC(=O)c2c(Cl)cccc2Cl)C(=O)c2cnn([C@H]3CC[C@](C)(C(=O)O)CC3)c2Cl)CC1 [Example 389, trans-4-(5-chloro-4-((2-(2,6-dichlorophenyl)-2-oxoethyl)-(4,4-dimethylcyclohexyl)carbamoyl)pyrazol-1-yl)-1-methylcyclohexane-1-carboxylic acid]
17 | 5.37e+06 | COc1ccccc1[C@H](O)CN(C(=O)c1cnn([C@H]2CC[C@](C)(C(=O)O)CC2)c1C(F)(F)F)[C@H]1C[C@@H]2[C@H](C1)C2(C)C [Example 371, trans-4-(4-(((1R,3r,5S)-6,6-dimethylbicyclo[3.1.0]hexan-3-yl)(2-hydroxy-2-(2-methoxyphenyl)ethyl)carbamoyl)-5-(trifluoromethyl)-1H-pyrazol-1-yl)-1-methylcyclohexanecarboxylic acid]
18 | 661000 | COc1cccc(Cl)c1[C@@H](O)CN(C(=O)c1cnn([C@H]2CC[C@](C)(C(=O)O)CC2)c1Cl)[C@H]1C[C@@H]2[C@H](C1)C2(C)C [Example 374, trans-4-(5-chloro-4-((2-(2-chloro-6-methoxyphenyl)-2-hydroxyethyl)((1R,3r,5S)-6,6-dimethylbicydo[3.1.0]hexan-3-yl)carbamoyl)-1H-pyrazol-1-yl)-1-methylcyclohexanecarboxylic acid]
